Data published in patent US9980927B2, “Use of tapentadol for inhibiting and/or treating depression and anxiety” (Gruenenthal GmbH, priority 2011, dated 2018).

System: patients with inadequately managed, severe chronic low back pain with or without a neuropathic pain component
Experiment: Hospital Anxiety and Depression Scale (HADS) depression score; open-label phase IIIb trial, tapentadol prolonged release 50-250 mg bid for up to 12 weeks
Format: in vivo, human patients
Details: for HADS depression score, course: Baseline to Week 12
Method: As used herein, the “depression score” is a value determining the degree of the depression. The scale of depression scores covers the range from 0 to 21, wherein the degree of the depression is high in case of high values and low in case of low values. In a group of tested subjects, typically the mean or mediate values of depression scores are determined. The mean value is the sum of all depression scores divided by the number of subjects. The mediate value is the middle depression score in the set of determined scores. Preferably, the “depression score” is defined as in the experimental section.
A subgroup suffering from neuropathic pain due to lumbar radiculopathy was also investigated.
This was a multicenter, multinational, open-label, effectiveness phase IIIb trial to evaluate effectiveness and safety of tapentadol prolonged release treatment in patients with inadequately managed, severe chronic low back pain with or without a neuropathic pain component. Patients taking WHO Step II analgesics discontinued those analgesics before starting study medication; patients taking Step I analgesics and/or centrally acting co-analgesics continued on the same dose. […] All patients received tapentadol prolonged release (50-250 mg bid) for up to 12 weeks (5-week titration period and a 7-week maintenance period). Tapentadol immediate release (IR) 50 mg (twice a day, hours apart) was permitted (combined total daily dose of tapentadol prolonged release and tapentadol IR, 500 mg/day). The primary efficacy endpoint was the change from Baseline to Week 6 (when tapentadol prolonged release doses were stable) in average pain intensity on the 11-point NRS-3 using the last observation carried forward (LOCF) for imputing missing scores. The painDETECT questionnaire was used to evaluate the likelihood of a neuropathic pain component of low back pain; patients were classified as painDETECT “negative,” “unclear,” or “positive.” The population of patients classified as painDETECT negative was limited to approximately 30% of the total population.
In the painDETECT positive trial population the “diagnosis of lumbar radiculopathy” was evaluated which was defined per study protocol according following criteria: • typical dermatomal pain (radiating beyond the knee towards the foot, pain evoked by stretching within distribution of the ischiadic/femoral nerve) • signs of root dysfunction: • such as sensory impairment, motor symptoms from compression of lumbar nerve root (L4, L5, S1). • and/or absent or diminished quadriceps femoris or triceps surae reflexes. • and/or quantitative sensory testing (QST) deficit and pain distribution present in the same dermatomal area.
All subjects completed Short Form-36 (SF-36) and EuroQol-5 Dimension (EQ-5D) questionnaires and the Hospital Anxiety and Depression Scale (HADS). The Patient Global Impression of Change (PGIC) and Clinical global impression of change (CGIC) were also used as secondary endpoints. For both tests, patients completed the statement, “since I began trial treatment, I would rate my overall condition as,” using 7 possible responses (“very much worse” to “very much improved”). Adverse events were recorded throughout the trial.
In the following • (i) N is the number of subjects of the specified diagnosis group, • (ii) n is the number of subjects with data available, • (iii) “Mean” is the mean score of the subjects, i.e. the sum of all scores is divided by the number of subjects, • (iv) SD is the standard deviation, • (v) “Median” is the median score of the subjects, i.e. the middle score in the set of scores, • (vi) “Range” is the range of scores of the subjects, i.e. the range defined by the lowest and the highest score of the set of scores. First, the depression scores are presented. The total number of subjects in the clinical study: N=175

[1] = Visit 1, defined neuropathic pain N=85
[2] = Visit 1, positive diagnosis of lumbar radiculopathy-neuropathic pain subset N=44
[3] = Visit 1, presumed neuropathic pain component N=41
[4] = Visit 1, presumed or defined neuropathic pain component N=126
[5] = Visit 1, subjects with nociceptive pain N=49
[6] = Visit 5, defined neuropathic pain N=85
[7] = Visit 5, positive diagnosis of lumbar radiculopathy-neuropathic pain subset N=44
[8] = Visit 5, presumed neuropathic pain component N=41
[9] = Visit 5, presumed or defined neuropathic pain component N=126
[10] = Visit 5, subjects with nociceptive pain N=49
[11] = Visit 6, defined neuropathic pain N=85
[12] = Visit 6, positive diagnosis of lumbar radiculopathy-neuropathic pain subset N=44
[13] = Visit 6, presumed neuropathic pain component N=41
[14] = Visit 6, presumed or defined neuropathic
[15] = Visit 6, presumed or defined neuropathic pain component N=126
[16] = Visit 6, subjects with nociceptive pain N=49
[17] = Visit 7, defined neuropathic pain N=85
[18] = Visit 7, positive diagnosis of lumbar radiculopathy-neuropathic pain subset N=44
[19] = Visit 7, presumed neuropathic pain component N=41
[20] = Visit 7, presumed or defined neuropathic pain component N=126
[21] = Visit 7, subjects with nociceptive pain N=49
[22] = Visit 8, defined neuropathic pain N=85
[23] = Visit 8, positive diagnosis of lumbar radiculopathy-neuropathic pain subset N=44
[24] = Visit 8, presumed neuropathic pain component N=41
[25] = Visit 8, presumed or defined neuropathic
[26] = Visit 8, presumed or defined neuropathic pain component N=126
[27] = Visit 8, subjects with nociceptive pain N=49
[28] = Visit 9, defined neuropathic pain N=85
[29] = Visit 9, positive diagnosis of lumbar radiculopathy-neuropathic pain subset N=44
[30] = Visit 9, presumed neuropathic pain component N=41
[31] = Visit 9, presumed or defined neuropathic pain component N=126
[32] = Visit 9, subjects with nociceptive pain N=49
[33] = Visit 10, defined neuropathic pain N=85
[34] = Visit 10, positive diagnosis of lumbar radiculopathy-neuropathic pain subset N=44
[35] = Visit 10, presumed neuropathic pain component N=41
[36] = Visit 10, presumed or defined neuropathic pain component N=126
[37] = Visit 10, subjects with nociceptive pain N=49
[38] = Visit 11, defined neuropathic pain N=85
[39] = Visit 11, positive diagnosis of lumbar radiculopathy-neuropathic pain subset N=44
[40] = Visit 11, presumed neuropathic pain component N=41
[41] = Visit 11, presumed or defined neuropathic pain component N=126
[42] = Visit 11, subjects with nociceptive pain N=49
[43] = Visit 12, defined neuropathic pain N=85
[44] = Visit 12, positive diagnosis of lumbar radiculopathy-neuropathic pain subset N=44
[45] = Visit 12, presumed neuropathic pain component N=41
[46] = Visit 12, presumed or defined neuropathic
[47] = Visit 12, presumed or defined neuropathic pain component N=126
[48] = Visit 12, subjects with nociceptive pain N=49

CC[C@@H](c1cccc(O)c1)[C@@H](C)CN(C)C [tapentadol, (−)-(1R,2R)-3-(3-dimethylamino-1-ethyl-2-methyl-propyl)-phenol]
HADS depression score, course (painDETECT negative): not significantly
HADS depression score, course (painDETECT unclear/positive, P<0.0001 at Visit 12): improved steadily
HADS depression score, course (positive diagnosis of lumbar radiculopathy-neuropathic pain subset, 0.0023 at Visit 12): improved steadily
Depression score Mean (SD) [1]: 8.3 (4.51)
Depression score Median [1]: 8.0
Depression score Mean (SD) [2]: 7.5 (3.69)
Depression score Median [2]: 7.5
Depression score Mean (SD) [3]: 8.8 (4.59)
Depression score Median [3]: 8.5
Depression score Mean (SD) [4]: 8.5 (4.52)
Depression score Median [4]: 8.0
Depression score Mean (SD) [5]: 6.1 (3.90)
Depression score Median [5]: 5.0
Depression score Mean (SD) (Visit 1, total subjects N=175): 7.8 (4.47)
Depression score Median (Visit 1, total subjects N=175): 7.0
Depression score Mean (SD) [6]: 7.3 (4.29)
Depression score Median [6]: 7.0
Depression score Mean (SD) [7]: 6.7 (3.77)
Depression score Median [7]: 6.0
Depression score Mean (SD) [8]: 7.5 (4.59)
Depression score Median [8]: 7.0
Depression score Mean (SD) [9]: 7.4 (4.37)
Depression score Median [9]: 7.0
Depression score Mean (SD) [10]: 5.6 (3.68)
Depression score Median [10]: 5.0
Depression score Mean (SD) (Visit 5, total subjects N=175): 6.9 (4.26)
Depression score Median (Visit 5, total subjects N=175): 6.0
Depression score change from baseline Mean (SD) (Visit 6): −0.4 (3.55)
Depression score change from baseline Median (Visit 6): −0.0
Depression score change from baseline Mean (SD) (Visit 6, defined neuropathic): −1.7 (3.43)
Depression score change from baseline Median (Visit 6, defined neuropathic): −2.0
Depression score Mean (SD) [11]: 6.8 (4.41)
Depression score Median [11]: 6.0
Depression score change from baseline Mean (SD) (Visit 6, lumbar radiculopathy): −1.7 (3.23)
Depression score change from baseline Median (Visit 6, lumbar radiculopathy): −1.0
Depression score change from baseline Mean (SD) (Visit 6, nociceptive): −1.0 (3.15)
Depression score change from baseline Median (Visit 6, nociceptive): −1.0
Depression score Mean (SD) [12]: 6.3 (3.67)
Depression score Median [12]: 6.0
Depression score Mean (SD) [13]: 7.5 (4.60)
Depression score Median [13]: 7.5
Depression score change from baseline Mean (SD) [14]: −1.3 (3.50)
Depression score change from baseline Median [14]: −1.0
Depression score Mean (SD) [15]: 7.1 (4.46)
Depression score Median [15]: 7.0
Depression score Mean (SD) [16]: 5.3 (4.03)
Depression score Median [16]: 4.0
Depression score change from baseline Mean (SD) (Visit 6, total): −1.2 (3.40)
Depression score change from baseline Median (Visit 6, total): −1.0
Depression score Mean (SD) (Visit 6, total subjects N=175): 6.6 (4.41)
Depression score Median (Visit 6, total subjects N=175): 6.0
Depression score Mean (SD) [17]: 6.2 (4.56)
Depression score Median [17]: 6.0
Depression score Mean (SD) [18]: 5.4 (3.85)
Depression score Median [18]: 5.0
Depression score Mean (SD) [19]: 7.0 (4.71)
Depression score Median [19]: 6.5
Depression score Mean (SD) [20]: 6.5 (4.61)
Depression score Median [20]: 6.0
Depression score Mean (SD) [21]: 5.0 (3.63)
Depression score Median [21]: 4.0
Depression score Mean (SD) (Visit 7, total subjects N=175): 6.1 (4.40)
Depression score Median (Visit 7, total subjects N=175): 6.0
Depression score change from baseline Mean (SD) (Visit 8): −1.0 (3.13)
Depression score change from baseline Median (Visit 8): −1.0
Depression score change from baseline Mean (SD) (Visit 8, defined neuropathic): −2.3 (3.33)
Depression score change from baseline Median (Visit 8, defined neuropathic): −1.5
Depression score Mean (SD) [22]: 6.4 (4.28)
Depression score Median [22]: 6.0
Depression score change from baseline Mean (SD) (Visit 8, lumbar radiculopathy): −2.1 (3.54)
Depression score change from baseline Median (Visit 8, lumbar radiculopathy): −1.0
Depression score change from baseline Mean (SD) (Visit 8, nociceptive): −0.8 (2.31)
Depression score change from baseline Median (Visit 8, nociceptive): −1.0
Depression score Mean (SD) [23]: 5.8 (3.71)
Depression score Median [23]: 6.0
Depression score Mean (SD) [24]: 6.4 (4.24)
Depression score Median [24]: 6.0
Depression score change from baseline Mean (SD) [25]: −1.9 (3.30)
Depression score change from baseline Median [25]: −1.0
Depression score Mean (SD) [26]: 6.4 (4.24)
Depression score Median [26]: 6.0
Depression score Mean (SD) [27]: 5.5 (3.90)
Depression score Median [27]: 4.5
Depression score change from baseline Mean (SD) (Visit 8, total): −1.6 (3.09)
Depression score change from baseline Median (Visit 8, total): −1.0
Depression score Mean (SD) (Visit 8, total subjects N=175): 6.2 (4.16)
Depression score Median (Visit 8, total subjects N=175): 6.0
Depression score Mean (SD) [28]: 6.5 (5.06)
Depression score Median [28]: 6.0
Depression score Mean (SD) [29]: 6.2 (4.63)
Depression score Median [29]: 7.5
Depression score Mean (SD) [30]: 6.4 (4.32)
Depression score Median [30]: 6.0
Depression score Mean (SD) [31]: 6.5 (4.81)
Depression score Median [31]: 6.0
Depression score Mean (SD) [32]: 5.4 (3.49)
Depression score Median [32]: 5.0
Depression score Mean (SD) (Visit 9, total subjects N=175): 6.1 (4.48)
Depression score Median (Visit 9, total subjects N=175): 6.0
Depression score Mean (SD) [33]: 6.5 (5.04)
Depression score Median [33]: 6.0
Depression score Mean (SD) [34]: 6.2 (4.50)
Depression score Median [34]: 7.0
Depression score Mean (SD) [35]: 6.4 (5.34)
Depression score Median [35]: 5.0
Depression score Mean (SD) [36]: 6.5 (5.09)
Depression score Median [36]: 6.0
Depression score Mean (SD) [37]: 5.5 (3.34)
Depression score Median [37]: 5.5
Depression score Mean (SD) (Visit 10, total subjects N=175): 6.2 (4.66)
Depression score Median (Visit 10, total subjects N=175): 6.0
Depression score Mean (SD) [38]: 5.9 (4.70)
Depression score Median [38]: 5.5
Depression score Mean (SD) [39]: 6.0 (4.69)
Depression score Median [39]: 6.5
Depression score Mean (SD) [40]: 6.4 (5.11)
Depression score Median [40]: 5.0
Depression score Mean (SD) [41]: 6.0 (4.80)
Depression score Median [41]: 5.0
Depression score Mean (SD) [42]: 5.6 (4.04)
Depression score Median [42]: 5.0
Depression score Mean (SD) (Visit 11, total subjects N=175): 5.9 (4.59)
Depression score Median (Visit 11, total subjects N=175): 5.0
Depression score change from baseline Mean (SD) (Visit 12): −1.5 (3.30)
Depression score change from baseline Median (Visit 12): −2.0
Depression score change from baseline Mean (SD) (Visit 12, defined neuropathic): −2.2 (3.31)
Depression score change from baseline Median (Visit 12, defined neuropathic): −2.0
Depression score Mean (SD) [43]: 5.8 (4.76)
Depression score Median [43]: 5.0
Depression score change from baseline Mean (SD) (Visit 12, lumbar radiculopathy): −2.1 (3.30)
Depression score change from baseline Median (Visit 12, lumbar radiculopathy): −1.0
Depression score change from baseline Mean (SD) (Visit 12, nociceptive): −0.5 (2.86)
Depression score change from baseline Median (Visit 12, nociceptive): 0.0
Depression score Mean (SD) [44]: 5.3 (4.09)
Depression score Median [44]: 5.0
Depression score Mean (SD) [45]: 6.2 (4.66)
Depression score Median [45]: 5.0
Depression score change from baseline Mean (SD) [46]: −2.0 (3.30)
Depression score change from baseline Median [46]: −2.0
Depression score Mean (SD) [47]: 5.9 (4.70)
Depression score Median [47]: 5.0
Depression score Mean (SD) [48]: 4.9 (3.13)
Depression score Median [48]: 4.0
Depression score change from baseline Mean (SD) (Visit 12, total): −1.6 (3.24)
Depression score change from baseline Median (Visit 12, total): −2.0
Depression score Mean (SD) (Visit 12, total subjects N=175): 5.7 (4.35)
Depression score Median (Visit 12, total subjects N=175): 5.0
efficacy against depression (conclusion from the clinical data): significant efficacy
depression (measured with HADS) (patient sub-population with low back pain with a neuropathic component): significant improvement
